Reference: ChEMBL document CHEMBL1201862, “PubChem BioAssay data set” (2004)
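Five compound concentrations were applied to cells in 96-well plates for 48 hours; endpoints were derived by simple linear interpolation of the resulting dose-response curve. The concentration for 50% growth inhibition is given as GI50.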 The source made the active and inactive calls. Cut-off read from the data, not from the text of the source: active = GI50 up to about 1.1 µM and inactive = higher.

Legend:
Test in all cases: NCI anticancer screen, dose series, 48 h
NCI-H522 = test system: NCI-H522
TK-10 = test system: TK-10
OVCAR-8 = test system: OVCAR-8
SNB-75 = test system: SNB-75
NCI-H23 = test system: NCI-H23
RXF 393 = test system: RXF 393
BT-549 = test system: BT-549
T47D = test system: T47D
CCRF-CEM = test system: CCRF-CEM
SF-268 = test system: SF-268
HT-29 = test system: HT-29
M14 = test system: M14
A549 = test system: A549
K562 = test system: K562
COLO 205 = test system: COLO 205
HCT-116 = test system: HCT-116
SR = test system: SR
HOP-92 = test system: HOP-92
A498 = test system: A498

Row | SMILES | GI50 (NCI-H522) | GI50 (TK-10) | GI50 (OVCAR-8) | GI50 (SNB-75) | GI50 (NCI-H23) | GI50 (RXF 393) | GI50 (BT-549) | GI50 (T47D) | GI50 (CCRF-CEM) | GI50 (SF-268) | GI50 (HT-29) | GI50 (M14) | GI50 (A549) | GI50 (K562) | GI50 (COLO 205) | GI50 (HCT-116) | GI50 (SR) | GI50 (HOP-92) | GI50 (A498)
1 | C=C1CC2C[C@H](OS(=O)(=O)c3ccc(C)cc3)C(C1)N2C (stereo not given in full) | > 100 µM (inactive) | > 100 µM (inactive) | > 100 µM (inactive) | 61.9 µM (inactive) | > 100 µM (inactive) | > 100 µM (inactive) | > 100 µM (inactive) | > 100 µM (inactive) | > 100 µM (inactive) | > 100 µM (inactive) | > 100 µM (inactive) | > 100 µM (inactive) | > 100 µM (inactive) | > 100 µM (inactive) | > 100 µM (inactive) | > 100 µM (inactive) | > 100 µM (inactive) |  | 
2 | O=C1CC(c2ccccc2)C2(C(=O)NC(=S)NC2=O)C(c2ccccc2)C1 (stereo not given) | > 75 µM (inactive) | > 75 µM (inactive) | > 75 µM (inactive) | > 75 µM (inactive) | > 75 µM (inactive) | > 75 µM (inactive) | > 75 µM (inactive) | > 75 µM (inactive) | > 75 µM (inactive) | > 75 µM (inactive) | > 75 µM (inactive) | > 75 µM (inactive) |  | > 75 µM (inactive) | > 75 µM (inactive) | > 75 µM (inactive) | 71 µM (inactive) | 13.3 µM (inactive) | 
3 | NCCCn1c(Cl)nc2ccccc21 | > 100 µM (inactive) |  | > 100 µM (inactive) | > 100 µM (inactive) | > 100 µM (inactive) | > 100 µM (inactive) | > 100 µM (inactive) | > 100 µM (inactive) | > 100 µM (inactive) | > 100 µM (inactive) | > 100 µM (inactive) | > 100 µM (inactive) | > 100 µM (inactive) | > 100 µM (inactive) | > 100 µM (inactive) | > 100 µM (inactive) | > 100 µM (inactive) |  | > 100 µM (inactive)
4 | CC1C(OC2O[C@@H]3O[C@@]4(C)CC[C@H]5[C@H](C)CC[C@@H](C2C)[C@@]35O4)O[C@@H]2O[C@@]3(C)CC[C@H]4[C@H](C)CC[C@@H]1[C@@]24O3 (stereo not given in full) | 19.3 µM (inactive) | > 50 µM (inactive) | > 50 µM (inactive) | > 50 µM (inactive) | > 50 µM (inactive) |  | > 50 µM (inactive) | > 50 µM (inactive) | > 50 µM (inactive) | > 50 µM (inactive) | > 50 µM (inactive) | > 50 µM (inactive) | > 50 µM (inactive) | > 50 µM (inactive) | > 50 µM (inactive) | > 50 µM (inactive) | > 50 µM (inactive) |  | > 50 µM (inactive)
5 | COc1cccc(C=C2N=C(c3ccccc3)N(n3c(-c4ccccc4)nc4ccccc4c3=O)C2=O)c1 | 18.3 µM (inactive) | > 100 µM (inactive) | 44.5 µM (inactive) | 44.4 µM (inactive) | 71.9 µM (inactive) |  | > 100 µM (inactive) | 26.5 µM (inactive) | 38.7 µM (inactive) | 56.4 µM (inactive) | 40.9 µM (inactive) | 45.1 µM (inactive) | 43.7 µM (inactive) | 68.9 µM (inactive) | 54 µM (inactive) | 46 µM (inactive) | 33.5 µM (inactive) |  | 67.9 µM (inactive)
6 | CC(C)(C)C(=O)CC1=Nc2ccccc2SC1(O)CC(=O)C(C)(C)C (stereo not given) | 13 µM (inactive) | 64 µM (inactive) | 21.9 µM (inactive) |  | 24.1 µM (inactive) | 23.5 µM (inactive) | 15.7 µM (inactive) | 19.7 µM (inactive) | 8.49 µM (inactive) | 25.8 µM (inactive) | 17.1 µM (inactive) | 29.8 µM (inactive) | 20.5 µM (inactive) | 21.5 µM (inactive) | 16.3 µM (inactive) | 24 µM (inactive) | 11.8 µM (inactive) |  | > 100 µM (inactive)
7 | O=[N+]([O-])C1(C2([N+](=O)[O-])CCCC2)CCCC1 | 50.7 µM (inactive) | > 100 µM (inactive) | > 100 µM (inactive) | 61 µM (inactive) | > 100 µM (inactive) | > 100 µM (inactive) | > 100 µM (inactive) | > 100 µM (inactive) | > 100 µM (inactive) | > 100 µM (inactive) | > 100 µM (inactive) | > 100 µM (inactive) | > 100 µM (inactive) | > 100 µM (inactive) | > 100 µM (inactive) | > 100 µM (inactive) | > 100 µM (inactive) |  | > 100 µM (inactive)
8 | COC(=O)c1cc2c3c(c(C(C)=O)c(OC)c2[nH]1)NCC3 |  | > 50 µM (inactive) | > 50 µM (inactive) | > 50 µM (inactive) | > 50 µM (inactive) | > 50 µM (inactive) | > 50 µM (inactive) | > 50 µM (inactive) | > 50 µM (inactive) | > 50 µM (inactive) | > 50 µM (inactive) | > 50 µM (inactive) |  | > 50 µM (inactive) | > 50 µM (inactive) | > 50 µM (inactive) | > 50 µM (inactive) |  | > 50 µM (inactive)
9 | C1=CC2C(C3CN(c4ccccc4)N=C13)C1C3C4C=CC21C=CC43 (stereo not given) | 97.5 µM (inactive) | > 100 µM (inactive) | > 95.3 µM (inactive) | > 65.3 µM (inactive) | > 100 µM (inactive) | 0.172 µM (active) | > 100 µM (inactive) | 0.189 µM (active) | > 69.3 µM (inactive) | > 100 µM (inactive) | > 100 µM (inactive) | > 100 µM (inactive) | > 100 µM (inactive) | > 100 µM (inactive) | > 100 µM (inactive) | > 100 µM (inactive) |  | 80 µM (inactive) | > 100 µM (inactive)
10 | O=C(Nc1ccc2nc(O)n[n+]([O-])c2c1)C(F)(F)F | > 100 µM (inactive) | > 100 µM (inactive) | > 100 µM (inactive) | > 100 µM (inactive) | > 100 µM (inactive) |  | > 100 µM (inactive) | > 100 µM (inactive) | > 100 µM (inactive) | > 100 µM (inactive) | > 100 µM (inactive) | > 100 µM (inactive) | > 100 µM (inactive) | > 100 µM (inactive) | > 100 µM (inactive) | > 100 µM (inactive) | > 100 µM (inactive) |  | > 100 µM (inactive)
11 | N=c1oc2ccccc2cc1-c1nc2ccccc2[nH]1 | 1.89 µM (inactive) | 17.7 µM (inactive) | 71.6 µM (inactive) | 41.1 µM (inactive) |  | 38.9 µM (inactive) | 27.5 µM (inactive) | 16.7 µM (inactive) | 14 µM (inactive) | 64.9 µM (inactive) | 36 µM (inactive) | 70.8 µM (inactive) | 74.1 µM (inactive) | 18.9 µM (inactive) | 51.2 µM (inactive) | 49.1 µM (inactive) | 19.2 µM (inactive) | 2.23 µM (inactive) | 
12 | Cc1c(F)c(N)c2c(=O)cc(-c3ccc(NC(=O)CN(C)C)c(F)c3)oc2c1F | 55.1 µM (inactive) | 18.5 µM (inactive) | 38.5 µM (inactive) |  | > 100 µM (inactive) | > 100 µM (inactive) | > 100 µM (inactive) | > 100 µM (inactive) | 21 µM (inactive) | 28.4 µM (inactive) | 33.6 µM (inactive) | > 100 µM (inactive) | 89.7 µM (inactive) | 26.7 µM (inactive) | 36.6 µM (inactive) | > 100 µM (inactive) | 17.6 µM (inactive) |  | 10 µM (inactive)
